SMILES strings stand for the structures. Where two headings read alike, the source gives them in different places.

From paper PMC6522912, “Evaluation of the published kinase inhibitor set to identify multiple inhibitors of bacterial ATP-dependent mur ligases” (Journal of Enzyme Inhibition and Medicinal Chemistry, 2019) come the findings set out here.

One test deals with E. coli MurC (Escherichia coli, UniProt P17952). Put plainly: Malachite green inhibition assay, MurC. Particulars: for remaining activity at 100 µM: 0.25 h. The class given is biochemical. The procedure: (§1) Inhibition of the Mur ligases was determined using the malachite green assay, with slight modifications.
E. coli MurC, sequence (P17952 whole entry): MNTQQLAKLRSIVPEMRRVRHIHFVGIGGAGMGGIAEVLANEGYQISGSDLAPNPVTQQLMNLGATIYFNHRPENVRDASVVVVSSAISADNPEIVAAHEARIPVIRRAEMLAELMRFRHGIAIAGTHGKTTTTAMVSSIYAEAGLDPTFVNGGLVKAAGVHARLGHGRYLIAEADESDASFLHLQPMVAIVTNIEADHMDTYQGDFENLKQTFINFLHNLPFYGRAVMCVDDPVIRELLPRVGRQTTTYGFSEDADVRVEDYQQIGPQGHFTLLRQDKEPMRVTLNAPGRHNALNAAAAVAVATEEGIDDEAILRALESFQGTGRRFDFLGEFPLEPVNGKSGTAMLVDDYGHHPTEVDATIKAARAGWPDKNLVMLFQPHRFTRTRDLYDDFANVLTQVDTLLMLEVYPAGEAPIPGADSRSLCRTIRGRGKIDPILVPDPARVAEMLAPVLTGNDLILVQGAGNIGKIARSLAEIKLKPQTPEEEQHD
(§2) In all cases, the final concentration of DMSO was 5% (v/v). After incubation for 15 min at 37 °C, the enzyme reaction was terminated by addition of 100 µM Biomol green reagent, and the absorbance was measured at 650 nm after 5 min. All of the experiments were run in duplicate. Residual activities were calculated with respect to control assays without the tested compounds, but with the 5% DMSO carrier.
(§3) The published kinase inhibitor set compounds were evaluated for inhibition of MurC, D and F ligases from E. coli using the Malachite green assay, which detects orthophosphate generated during enzymatic reactions. To avoid non-specific inhibition due to aggregate formation, all of the compounds were tested in the presence of detergent (0.005% Triton-X114). The data are presented as the residual activities of these Mur ligases in the presence of 100 µM of each test compound (Supporting Information Table S1). […] Additionally, regarding the data of profiled compounds in large panels of human kinase assays[41]

For another test, the target named is E. coli MurD (Escherichia coli, UniProt P14900). Put plainly: biochemical. Particulars: for remaining activity at 100 µM: 0.25 h, Table S1, PKIS screening, read-out: RA [%] at 100 µM MurD. The procedure:
as §1, §2
The published kinase inhibitor set compounds were evaluated for inhibition of MurC, D and F ligases from E. coli using the Malachite green assay, which detects orthophosphate generated during enzymatic reactions. To avoid non-specific inhibition due to aggregate formation, all of the compounds were tested in the presence of detergent (0.005% Triton-X114). The data are presented as the residual activities of these Mur ligases in the presence of 100 µM of each test compound (Supporting Information Table S1).

The target in a further test is E. coli MurF (Escherichia coli, UniProt P11880). As to the kind of experiment: biochemical. The settings on record: Table S1, PKIS screening; for remaining activity at 100 µM: 0.25 h, read-out: RA [%] at 100 µM MurF. The procedure: as §1, §2, §3
E. coli MurF, sequence (P11880 whole entry): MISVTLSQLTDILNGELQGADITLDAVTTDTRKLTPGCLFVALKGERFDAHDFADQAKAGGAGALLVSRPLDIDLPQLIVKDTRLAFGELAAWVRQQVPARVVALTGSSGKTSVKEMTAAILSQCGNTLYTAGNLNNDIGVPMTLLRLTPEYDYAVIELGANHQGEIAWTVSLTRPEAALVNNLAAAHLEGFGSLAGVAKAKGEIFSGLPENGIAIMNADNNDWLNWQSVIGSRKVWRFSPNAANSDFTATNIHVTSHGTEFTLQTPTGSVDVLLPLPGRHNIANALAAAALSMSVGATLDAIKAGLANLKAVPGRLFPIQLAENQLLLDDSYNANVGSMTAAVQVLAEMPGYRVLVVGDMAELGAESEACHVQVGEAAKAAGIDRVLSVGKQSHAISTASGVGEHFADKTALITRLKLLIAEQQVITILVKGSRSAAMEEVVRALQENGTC
Where [1] appears, read: Table S1, PKIS screening, read-out: RA [%] at 100 µM MurC.

E. coli MurD, sequence (P14900 whole entry): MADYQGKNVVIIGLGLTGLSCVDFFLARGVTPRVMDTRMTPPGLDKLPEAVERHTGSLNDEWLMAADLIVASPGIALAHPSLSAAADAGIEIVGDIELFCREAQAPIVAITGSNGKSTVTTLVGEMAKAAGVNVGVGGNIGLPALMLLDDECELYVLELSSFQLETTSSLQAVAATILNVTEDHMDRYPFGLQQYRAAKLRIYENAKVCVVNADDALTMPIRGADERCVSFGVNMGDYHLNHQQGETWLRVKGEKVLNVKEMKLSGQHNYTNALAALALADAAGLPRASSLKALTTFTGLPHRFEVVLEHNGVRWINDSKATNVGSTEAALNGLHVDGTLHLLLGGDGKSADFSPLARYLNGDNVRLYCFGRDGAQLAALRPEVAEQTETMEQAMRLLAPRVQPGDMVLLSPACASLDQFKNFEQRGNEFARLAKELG

Turning to `COc1ccc2cc(-c3c(-c4ccncc4)nc(-c4ccc(S(C)(=O)=O)cc4C)n3C)ccc2c1` [SB-633825], the values for the remaining activity at 100 µM on E. coli MurC (setting [1]), at E. coli MurD and on E. coli MurF were 36%, 69% and 56%, respectively.
In the case of `Nc1ncc(-c2cccc(S(N)(=O)=O)c2)c2scc(-c3ccc(F)c(Cl)c3)c12` [GW856804X], the figures for the remaining activity at 100 µM at E. coli MurC (setting [1]), at E. coli MurD and at E. coli MurF were 64%, 75% and 71%, respectively.
As to `O=C(O[C@H]1CN[C@H](C#Cc2cc3ncnc(Nc4ccc5c(cnn5Cc5ccccc5)c4)c3s2)C1)N1CCOCC1` [GSK200398A], the values for the remaining activity at 100 µM on E. coli MurC (setting [1]), at E. coli MurD and at E. coli MurF were 52%, 61% and 60%, respectively.
Taken in the same sequence, the figures for `NC(=O)c1cc(-c2ccc(F)cc2)cc(-c2ccncc2)c1N` [GSK620503A] were 94%, 71% and 80%.
Taken in the same sequence, the figures for `CS(=O)(=O)Nc1ccc(-c2ccc3c(NC(=O)C4CC4)n[nH]c3c2)cc1` [SB-742865] were 63%, 80% and 92%.
As for `c1cnn2ncc(-c3ccnc(Nc4ccc5c(c4)OCCO5)n3)c2c1` [GW806290X], the figures for the remaining activity at 100 µM on E. coli MurC (setting [1]), at E. coli MurD and on E. coli MurF were 64%, 69% and 71%, respectively.
Taken in the same sequence, the figures for `N#Cc1c(NC(=O)c2ccc(F)cc2)sc2c1CCCC2` [SB-347804] were 87%, 78% and 100%.
For `CN(C)CCNC(=O)Nc1ccc(N(C)c2ccnc(Nc3ccc(CS(C)(=O)=O)cc3)n2)cc1` [GW830900A], the remaining activity at 100 µM came out at 74% at E. coli MurC (setting [1]), 91% at E. coli MurD and 75% on E. coli MurF.
`COc1ccc(-c2ccncc2)cc1C(N)=O` [GSK605714A]: the remaining activity at 100 µM amounted to 86% on E. coli MurC (setting [1]), 91% on E. coli MurD and 90% at E. coli MurF.
Taken in the same sequence, the figures for `[O-][S+]1CCN(Cc2ccc(-c3ccc4ncnc(Nc5ccc(OCc6ccccc6)c(Cl)c5)c4c3)o2)CC1` [GW583373A] were 62%, 59% and 60%.
As to `Cc1cc(O)cc(C)c1/C=C/c1cncc(C(=O)OC(C)(C)C)c1` [GW439255X], the remaining activity at 100 µM stood at 75% at E. coli MurC (setting [1]), 96% on E. coli MurD and 69% on E. coli MurF.
Consider `CN1CCN(C(=O)c2ccc(NC(=O)Nc3ccc(N(C)c4ccnc(Nc5ccc(CS(C)(=O)=O)cc5)n4)cc3)cc2)CC1` [GW830263A], for which the values for the remaining activity at 100 µM at E. coli MurC (setting [1]), at E. coli MurD and on E. coli MurF were 51%, 69% and 73%, respectively.
Consider `Cc1ccc(NC(=O)c2ccnc(N3CCCC3)c2)cc1-c1ccc(C(=O)NCC2CC2)cc1` [GW769076X], for which the remaining activity at 100 µM at E. coli MurC (setting [1]) amounted to 38%; on E. coli MurD, 56%; on E. coli MurF, 62%.
Taken in the same sequence, the figures for `COc1cc2ncn(-c3cc(OCc4ccccc4S(C)(=O)=O)c(C#N)s3)c2cc1OC` [GSK319347A] were 59%, 100% and 75%.
For `CCn1c(-c2nonc2N)nc2c(C#CC(C)(C)O)ncc(OCC3CCNCC3)c21` [GSK554170A], the remaining activity at 100 µM on E. coli MurC (setting [1]) came out at 85%; at E. coli MurD, 89%; on E. coli MurF, 96%.
For `Fc1ccc(-c2ncn(C3CCNCC3)c2-c2ccnc(Oc3ccc(Oc4ccccc4)cc3)n2)cc1` [SB-245392], the remaining activity at 100 µM at E. coli MurC (setting [1]) worked out at 27%; on E. coli MurD it was 41%; on E. coli MurF, 41%.
`CCOc1ccc2c(-c3ccnc(Nc4cccc(C(F)(F)F)c4)n3)cnn2n1` [GW811761X]: the remaining activity at 100 µM at E. coli MurC (setting [1]) is 64%; on E. coli MurD it was 93%; at E. coli MurF, 74%.
Taken in the same sequence, the figures for `CC1=C(C(=O)Nc2ccc3[nH]ncc3c2)C(c2ccc3ccccc3c2)CC(=O)N1` (stereo not drawn) [GSK270822A] were 66%, 81% and 68%.
With `COc1cc2ncn(-c3cc(OCc4ccccc4C(F)(F)F)c(C(=O)N(C)C)s3)c2cc1OC` [GSK1030062A], the figures for the remaining activity at 100 µM at E. coli MurC (setting [1]), at E. coli MurD and on E. coli MurF were 68%, 76% and 63%, respectively.
For `O=C(Nc1n[nH]c2cc(-c3ccccc3)ccc12)C1CC1` [SB-732941], the results for the remaining activity at 100 µM at E. coli MurC (setting [1]), at E. coli MurD and at E. coli MurF were 80%, 79% and 86%, respectively.
As for `COC(=O)Nc1nc2ccc(Oc3ccc(NC(=O)Nc4cccc(Cl)c4)cc3)cc2[nH]1` [GW589961A], the remaining activity at 100 µM came out at 77% at E. coli MurC (setting [1]), 81% on E. coli MurD and 83% on E. coli MurF.
Turning to `Nc1nccc(-c2c(-c3ccc(F)cc3)ncn2C2CCNCC2)n1` [SB-220025-R#3], the “RA [%] at 100 µM MurC” value on E. coli MurC (Table S1, PKIS screening) was 81%. In addition, the “RA [%] at 100 µM MurD” value on E. coli MurD is reported as 87. For the same compound, the “RA [%] at 100 µM MurF” value at E. coli MurF is recorded as 100%.
Regarding `COc1cc(N2CCN(C(C)C)CC2)ccc1Nc1nc(Nc2ccc(F)cc2C(=O)NC[C@@H](O)CO)c2cc[nH]c2n1` [GSK1392956A], the remaining activity at 100 µM on E. coli MurC (setting [1]) stood at 65%; on E. coli MurD, 76%; at E. coli MurF, 90%.
Taken in the same sequence, the figures for `COc1cc(/C=N/Nc2ncnc3c2cnn3C(C)C)ccc1O` [GW644007X] were 87%, 91% and 78%.
As to `CC1=C(C(=O)Nc2ccc3[nH]ncc3c2)C(c2ccc(F)cc2)NC(c2ccc(C(F)(F)F)nc2)=N1` (stereo not drawn) [GSK317354A], the remaining activity at 100 µM on E. coli MurC (setting [1]) is 68%; on E. coli MurD, 96%; on E. coli MurF, 96%.
Regarding `CCn1c(-c2nonc2N)nc2c(C#CC(C)(C)O)nc(OC[C@@H](N)c3ccccc3)cc21` [GSK938890A], the remaining activity at 100 µM came out at 76% at E. coli MurC (setting [1]), 80% at E. coli MurD and 92% at E. coli MurF.
Taken in the same sequence, the figures for `NS(=O)(=O)c1ccc(Nc2ncc(-c3ccccc3)o2)cc1` [GW572399X] were 80%, 100% and 74%.
Taken in the same sequence, the figures for `CS(=O)(=O)CCNCc1ccc(-c2ccc3ncnc(Nc4ccc(OCc5ccccc5)c(Br)c4)c3c2)o1` [GW580496A] were 95%, 48% and 90%.
Taken in the same sequence, the figures for `O=C1NC(=O)C(N2CCc3ccccc32)=C1c1ccc(Cl)cc1` [SB-333612] were 100%, 96% and 100%.
On to `CC1=C(C(=O)Nc2ccc3[nH]nc(C)c3c2)C(c2ccc(C(F)(F)F)cc2)CC(=O)N1` (stereo not drawn) [GSK466314A], for which the remaining activity at 100 µM is 79% at E. coli MurC (setting [1]), 100% on E. coli MurD and 79% at E. coli MurF.
As for `NC(=O)c1ccc(Oc2nccc(-c3c(-c4ccc(F)cc4)ncn3C3CCNCC3)n2)cc1` [SB-242718], the remaining activity at 100 µM was 39% at E. coli MurC (setting [1]), 65% on E. coli MurD and 69% on E. coli MurF.
For the compound `Cc1ccc2c(-c3ccnc(Nc4ccc5c(c4)OCCO5)n3)c(-c3ccc(C(F)(F)F)cc3)nn2n1` [GW832467X], the remaining activity at 100 µM was 22% on E. coli MurC (read-out: RA [%] at 100 µM MurC, Table S1, PKIS screening); 62% on E. coli MurD; 73% at E. coli MurF.
With `COc1cccc(COc2cc(-n3cnc4ccccc43)sc2C(N)=O)c1` [GW804482X], the remaining activity at 100 µM is 100% on E. coli MurC (setting [1]), 79% on E. coli MurD and 82% at E. coli MurF.
In the case of `CN(C)CCOc1ccc(-c2cc(-c3ccc4c(c3)CCC4=NO)c(-c3ccncc3)o2)cc1.Cl` [SB-682330-A], at E. coli MurC (Table S1, PKIS screening), the “RA [%] at 100 µM MurC” value turned out to be 31%. Further, on E. coli MurD, the “RA [%] at 100 µM MurD” value is recorded as 51. In addition, the “RA [%] at 100 µM MurF” value at E. coli MurF was 57%.
For `COc1cc2ncn(-c3cc(OCc4ccccc4C(F)(F)F)c(C(N)=O)s3)c2cc1OC` [GW843682X], the remaining activity at 100 µM at E. coli MurC (setting [1]) worked out at 65%; at E. coli MurD, 82%; at E. coli MurF it was 83%.
As for `NC(=O)c1cccc(Nc2nccc(Nc3cccc4[nH]ncc34)n2)c1` [GW782612X], the values for the remaining activity at 100 µM on E. coli MurC (setting [1]), on E. coli MurD and at E. coli MurF were 86%, 92% and 77%, respectively.
